From patent publication US20230159527A1, “COMPOUNDS AS BCL-2 INHIBITORS” (Fochon Pharmaceuticals, Ltd., priority 2020, published 2023) come the findings set out here.

Format in all cases: cell-based
One assay deals with Toledo cells. Nature of the assay: Cell proliferation assay, Toledo cells (MTS, 72 h). Conditions: Homo sapiens, Toledo cells, MTS, read-out: Toledo IC50. In a few lines: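 Toledo cells (30000/well, RPMI-1640 with 10% FBS) were preincubated for 4 h. They were then exposed to nine compound concentrations from 10000 to 1.5 nM for 72 h at 37 °C, 5% CO2. MTS was added for 2 h and absorbance read at 490 nm to give IC50.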

The test system of the next assay is RS4;11-BCL-2 G101V cells. Nature of the assay: Cell proliferation assay, engineered RS4;11 cells stably overexpressing BCL-2 G101V (MTS, 168 h). Conditions: Homo sapiens, RS4-11, 168 h, read-out: RS4, 11 BCL2- G101V. On the procedure:
MTS testing kit was purchased from Promega (Madison, Wis., USA). The RPMI-1640, Fetal bovine serum and Penicillin-Streptomycin were purchased from BI (Biological Industries, Beit Haemek, Israel). Puromycin was purchased from Beyotime (shanghai, China). Dimethyl sulfoxide (DMSO) was purchased from Sigma (St. Louis, Mo., USA). RS4;1l-BCL-2 G101V and RS4;11-BCL-2 F104L cells were cultured in RPM11640 supplemented with 1 ug/mL puromycin, 100 U/mL Penicillin-Streptomycin and 10% FBS.
To investigate whether a compound is able to inhibit the activity of BCL-2 mutation in cells, a mechanism-based assay using engineered cell lines stably overexpressing BCL-2 mutation ([…] and […]) was developed. In this assay, the inhibition of BCL-2 mutation was reflected by the inhibition of cell proliferation of RS4;11-BCL-2 G101V and RS4;11-BCL-2 F104L cells. Cells were plated into 96-well plates at optimized cell density (RS4;11-BCL-2 G101V: 5000 cells/well; RS4;11-BCL-2 F104L: 5000 cells/well). Plates were incubated at 37° C., with 5% CO2 for 4 h. Compounds were serially diluted to the final-concentrations of 10000, 3333.3, 1111.1, 370.4, 123.5, 41.2, 13.7, 4.6 and 1.4 nM and added to the plates. Plates were incubated at 37° C., with 5% CO2 for 168 h. 20 μl MTS was added into each well and the plates were incubated at 37° C., with 5% CO2 exactly for 2 h. The absorbance was measured by a microplate reader at 490 nm. IC50 values were calculated using GraphPad Prism 5.0 software.

The next assay relates to RS4;11-BCL-2 F104L cells. In words: Cell proliferation assay, engineered RS4;11 cells stably overexpressing BCL-2 F104L (MTS, 168 h). The settings on record: Homo sapiens, read-out: RS4, 11 BCL2-F104L. In a few lines: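 Proliferation read-out: MTS for exactly 2 h, then absorbance at 490 nm, with IC50 derived from the fit. Before this, engineered RS4;11 lines (BCL-2 G101V, F104L; 5000 cells/well) were exposed 168 h at 37 °C to serially diluted compound, final 1.4–10000 nM.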

For the molecule `CC(C)c1ccccc1[C@@H]1CCC[C@@H]1N1CC2(CCN(c3ccc(C(=O)NS(=O)(=O)c4cc5c(c([N+](=O)[O-])c4)N[C@@H]([C@H]4CC[C@](C)(O)CC4)CO5)c(Oc4cc5c(F)c[nH]c5nc4F)c3)CC2)C1` (single isomer, unassigned) [Example D-96, 2-((3,6-difluoro-1H-pyrrolo[2,3-b]pyridin-5-yl)oxy)-N-(((S)-3-((1r,4S)-4-hydroxy-4-methylcyclohexyl)-5-nitro-3,4-dihydro-2H-benzo[b][1,4]oxazin-7-yl)sulfonyl)-4-(2-((1S,2S or 1R,2R)-2-(2-isopropylphenyl)cyclopentyl)-2,7-diazaspiro[3.5]nonan-7-yl)benzamide], the values for the IC50 with Toledo cells, in the assay with RS4;11-BCL-2 G101V cells and in the assay on RS4;11-BCL-2 F104L cells were 1 nM, 4 nM and 1 nM, respectively.
Take `CC(C)c1ccccc1[C@@H]1CCCN1C1CC2(CCN(c3ccc(C(=O)NS(=O)(=O)c4cc5c(c([N+](=O)[O-])c4)N[C@@H]([C@H]4CC[C@](C)(O)CC4)CO5)c(Oc4cc5cc[nH]c5nc4F)c3)CC2)C1` (single isomer, unassigned) [Example D-64, 2-((6-fluoro-1H-pyrrolo[2,3-b]pyridin-5-yl)oxy)-N-(((S)-3-((1r,4S)-4-hydroxy-4-methylcyclohexyl)-5-nitro-3,4-dihydro-2H-benzo[b] [1,4]oxazin-7-yl)sulfonyl)-4-(2-((R or S)-2-(2-isopropylphenyl)pyrrolidin-1-yl)-7-azaspiro[3.5]nonan-7-yl)benzamide]: the IC50 in the assay with Toledo cells was determined as 1 nM; in the assay on RS4;11-BCL-2 G101V cells it was 1 nM; with RS4;11-BCL-2 F104L cells, 25 nM.
As for `CCOc1nc2[nH]cc(F)c2cc1Oc1cc(N2CCC3(CC2)CN([C@H]2CCC[C@H]2c2ccccc2C(C)C)C3)ccc1C(=O)NS(=O)(=O)c1cc2c(c([N+](=O)[O-])c1)N[C@@H]([C@H]1CC[C@](C)(O)CC1)CO2` (single isomer, unassigned) [Example D-103, 2-((6-ethoxy-3-fluoro-1H-pyrrolo [2,3-b]pyridin-5-yl)oxy)-N-(((S)-3-((1r,4S)-4-hydroxy-4-methylcyclohexyl)-5-nitro-3,4-dihydro-2H-benzo[b][1,4]oxazin-7-yl)sulfonyl)-4-(2-((1S,2S or 1R,2R)-2-(2-isopropylphenyl)cyclopentyl)-2,7-diazaspiro[3.5]nonan-7-yl)benzamide], the IC50 with Toledo cells, in the assay with RS4;11-BCL-2 G101V cells and in the assay with RS4;11-BCL-2 F104L cells was 1 nM each time.
Regarding `CC(C)c1ccccc1[C@@H]1CCCN1C1CC2(CCN(c3ccc(C(=O)NS(=O)(=O)c4cc5c(c([N+](=O)[O-])c4)N[C@@H]([C@H]4CC[C@](C)(O)CC4)CO5)c(Oc4cc5cc[nH]c5nc4OC4CCN(C)CC4)c3)CC2)C1` (single isomer, unassigned) [Example D-229, N-(((S)-3-((1r,4S)-4-hydroxy-4-methylcyclohexyl)-5-nitro-3,4-dihydro-2H-benzo[b][1,4]oxazin-7-yl)sulfonyl)-4-(2-((R or S)-2-(2-isopropylphenyl)pyrrolidin-1-yl)-7-azaspiro[3.5]nonan-7-yl)-2-((6-((1-methylpiperidin-4-yl)oxy)-1H-pyrrolo[2,3-b]pyridin-5-yl)oxy)benzamide], the IC50 in the assay with Toledo cells, with RS4;11-BCL-2 G101V cells and in the assay on RS4;11-BCL-2 F104L cells was 1 nM each time.
Regarding `CC(C)c1ccccc1[C@@H]1CCCN1C1CC2(CCN(c3ccc(C(=O)NS(=O)(=O)c4cc5c(c([N+](=O)[O-])c4)N[C@@H]([C@H]4CC[C@](C)(O)CC4)CO5)c(Oc4cc5cc[nH]c5nc4OC[C@@H]4CCCN4C)c3)CC2)C1` (single isomer, unassigned) [Example D-131, N-(((S)-3-((1r,4S)-4-hydroxy-4-methylcyclohexyl)-5-nitro-3,4-dihydro-2H-benzo[b][1,4]oxazin-7-yl)sulfonyl)-4-(2-((R or S)-2-(2-isopropylphenyl)pyrrolidin-1-yl)-7-azaspiro[3.5]nonan-7-yl)-2-((6-(((S)-1-methylpyrrolidin-2-yl)methoxy)-1H-pyrrolo[2,3-b]pyridin-5-yl)oxy)benzamide], the IC50 in the assay with Toledo cells, in the assay with RS4;11-BCL-2 G101V cells and with RS4;11-BCL-2 F104L cells was 1 nM in each case.
In the case of `COC(C)COc1nc2[nH]cc(F)c2cc1Oc1cc(N2CCC3(CC2)CN([C@H]2CCC[C@H]2c2ccccc2C(C)C)C3)ccc1C(=O)NS(=O)(=O)c1cnc(NC[C@H]2CC[C@](C)(O)CC2)c([N+](=O)[O-])c1` (single isomer, unassigned) [Example A-155, 2-((3-fluoro-6-(2-methoxypropoxy)-1H-pyrrolo[2,3-b]pyridin-5-yl)oxy)-N-((6-((((1r,4r)-4-hydroxy-4-methyl-cyclohexyl)methyl)amino)-5-nitro-pyridin-3-yl)sulfonyl)-4-(2-((1S,2S or 1R,2R)-2-(2-isopropylphenyl)cyclo-pentyl)-2,7-diazaspiro[3.5]nonan-7-yl) benzamide], the IC50 came to 13 nM in the assay on RS4;11-BCL-2 G101V cells and 1 nM in the assay with RS4;11-BCL-2 F104L cells.
As to `COC(C)COc1nc2[nH]cc(F)c2cc1Oc1cc(N2CCC3(CC2)CC(N2CCC[C@H]2c2ccccc2C(C)C)C3)ccc1C(=O)NS(=O)(=O)c1cc2c(c([N+](=O)[O-])c1)N[C@@H]([C@H]1CC[C@](C)(O)CC1)CO2` (single isomer, unassigned) [Example D-243, 2-((3-fluoro-6-(2-methoxypropoxy)-1H-pyrrolo[2,3-b]pyridin-5-yl)oxy)-N-(((S)-3-((1r,4S)-4-hydroxy-4-methylcyclohexyl)-5-nitro-3,4-dihydro-2H-benzo[b][1,4]oxazin-7-yl)sulfonyl)-4-(2-((R or S)-2-(2-isopropylphenyl)pyrrolidin-1-yl)-7-azaspiro[3.5]nonan-7-yl)benzamide], the IC50 worked out at 10 nM with RS4;11-BCL-2 G101V cells and 1 nM with RS4;11-BCL-2 F104L cells.
For `COC(C)COc1nc2[nH]cc(F)c2cc1Oc1cc(N2CCC3(CC2)CN([C@H]2CCC[C@H]2c2ccccc2C(C)C)C3)ccc1C(=O)NS(=O)(=O)c1cc2c(c([N+](=O)[O-])c1)N[C@@H]([C@H]1CC[C@](C)(O)CC1)CO2` (single isomer, unassigned) [Example D-241, 2-((3-fluoro-6-(2-methoxypropoxy)-1H-pyrrolo[2,3-b]pyridin-5-yl)oxy)-N-(((S)-3-((1r,4S)-4-hydroxy-4-methylcyclohexyl)-5-nitro-3,4-dihydro-2H-benzo[b][1,4]oxazin-7-yl)sulfonyl)-4-(2-((1S,2S or 1R,2R)-2-(2-isopropylphenyl)cyclopentyl)-2,7-diazaspiro[3.5]nonan-7-yl)benzamide], the IC50 in the assay with RS4;11-BCL-2 G101V cells was found to be 4 nM; in the assay on RS4;11-BCL-2 F104L cells it was 1 nM.
`COC(C)COc1nc2[nH]cc(F)c2cc1Oc1cc(N2CCC3(CC2)CN([C@H]2CCC[C@H]2c2ccccc2C(C)C)C3)ccc1C(=O)NS(=O)(=O)c1ccc(NC[C@H]2CC[C@](C)(O)CC2)c([N+](=O)[O-])c1` (single isomer, unassigned) [Example D-233, 2-((3-fluoro-6-(2-methoxypropoxy)-1H-pyrrolo[2,3-b]pyridin-5-yl)oxy)-N-((4-(((1r,4r)-4-hydroxy-4-methylcyclohexyl)methyl)amino)-3-nitrophenyl)sulfonyl)-4-(2-((1S,2S or 1R,2R)-2-(2-isopropylphenyl)cyclopentyl)-2,7-diazaspiro[3.5]nonan-7-yl)benzamide]: the IC50 in the assay on RS4;11-BCL-2 G101V cells is 14 nM; in the assay with RS4;11-BCL-2 F104L cells, 4 nM.
As for `CC(C)c1ccccc1[C@@H]1CCCN1C1CC2(CCN(c3ccc(C(=O)NS(=O)(=O)c4cc5c(c([N+](=O)[O-])c4)N[C@@H]([C@H]4CC[C@](C)(O)CC4)CO5)c(Oc4cc5cc[nH]c5nc4OC4COC4)c3)CC2)C1` (single isomer, unassigned) [Example D-72, N-(((S)-3-((1r,4S)-4-hydroxy-4-methylcyclohexyl)-5-nitro-3,4-dihydro-2H-benzo[b][1,4]oxazin-7-yl)sulfonyl)-4-(2-((R or S)-2-(2-isopropylphenyl)pyrrolidin-1-yl)-7-azaspiro[3.5]nonan-7-yl)-2-((6-(oxetan-3-yloxy)-1H-pyrrolo[2,3-b]pyridin-5-yl)oxy) benzamide], the IC50 was found to be 1 nM in the assay with Toledo cells and 17 nM with RS4;11-BCL-2 G101V cells.
